{"source": "patent US6946458B2", "about": "“N-thiolated beta-lactams: novel antibacterial agents for methicillin-resistant Staphylococcus aureus” (University of South Florida, priority 1999, dated 2005)", "assay_in_all_cases": "Kirby-Bauer agar disk diffusion", "key": {"MRSA USF652": {"tested_on": "MRSA USF652", "format": "cell-based, Staphylococcus aureus", "design": "Kirby-Bauer Disc Diffusion Test Results: unit not given here", "conditions": "for zone of inhibition at 20 µg/disc: Staphylococcus aureus, MRSA", "procedure,_shortened": "(§1)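 Read-out is the mean diameter (mm, n=3) of the zone without bacterial growth 24 h after applying a 6-mm disk carrying 20 μg of compound to an agar plate of β-lactamase-producing MRSA.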"}, "MRSA USF654": {"tested_on": "MRSA USF654", "format": "cell-based, Staphylococcus aureus", "design": "Kirby-Bauer Disc Diffusion Test Results: unit not given here", "conditions": "for zone of inhibition at 20 µg/disc: Staphylococcus aureus, MRSA", "procedure,_shortened": "as §1"}, "MRSA USF656": {"tested_on": "MRSA USF656", "format": "cell-based, Staphylococcus aureus", "design": "Kirby-Bauer Disc Diffusion Test Results: unit not given here", "conditions": "for zone of inhibition at 20 µg/disc: Staphylococcus aureus, MRSA", "procedure,_shortened": "as §1"}, "MRSA USF657": {"tested_on": "MRSA USF657", "format": "cell-based, Staphylococcus aureus", "design": "Kirby-Bauer Disc Diffusion Test Results: unit not given here", "conditions": "for zone of inhibition at 20 µg/disc: Staphylococcus aureus, MRSA", "procedure,_shortened": "as §1"}, "MRSA USF658": {"tested_on": "MRSA USF658", "format": "cell-based, Staphylococcus aureus", "design": "Kirby-Bauer Disc Diffusion Test Results: unit not given here", "conditions": "for zone of inhibition at 20 µg/disc: Staphylococcus aureus, MRSA", "procedure,_shortened": "as §1"}, "MRSA USF659": {"tested_on": "MRSA USF659", "format": "cell-based, Staphylococcus aureus", "design": "Kirby-Bauer Disc Diffusion Test Results: unit not given here", "conditions": "for zone of inhibition at 20 µg/disc: Staphylococcus aureus, MRSA", "procedure,_shortened": "as §1"}, "Micrococcus luteus": {"tested_on": "Micrococcus luteus", "format": "cell-based", "conditions": "6-mm disks, 20 μg test compound", "procedure,_shortened": "(§2)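 Agar disk diffusion used 6-mm air-dried disks carrying 20 μg of compound. Values are mean diameters (mm) of the growth-inhibition zone at 24 h, from triplicate experiments. S. epidermidis and S. simulans were clinical isolates.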"}, "[1]": {"tested_on": "Staphylococcus aureus (ATCC 25923)", "format": "cell-based", "conditions": "6-mm disks, 20 μg test compound", "procedure,_shortened": "as §2"}, "[2]": {"tested_on": "Staphylococcus epidermidis", "format": "cell-based", "conditions": "6-mm disks, 20 μg test compound", "procedure,_shortened": "as §2"}, "[3]": {"conditions": "Table 1, 6-mm disks, 20 μg test compound, 24 h, triplicate, read-out: zone of growth inhibition, average diameter"}, "[4]": {"conditions": "Table 4, 20 μg disk loading, read-out: Zones of Inhibition"}, "[5]": {"conditions": "Table 6, 20 μg disk loading, read-out: The Zone of Inhibition"}, "[6]": {"conditions": "Table 3, 6-mm disks, 20 μg test compound, 24 hours"}, "[7]": {"conditions": "Table 5, beta-lactamase producing strain"}}, "note": "Read-outs that look alike come from different tables or passages of the source."}
{"molecule": "CC1(C)S[C@@H]2[C@H](NC(=O)Cc3ccccc3)C(=O)N2[C@H]1C(=O)O", "note": "[PenG, penicillin G, reference compound]", "values": [{"measurement": "zone of inhibition at 20 µg/disc", "setting": "MRSA USF652; [3]", "result": 8, "unit": "mm"}, {"measurement": "zone of inhibition at 20 µg/disc", "setting": "MRSA USF652; [4]", "result": 8, "unit": "mm"}, {"measurement": "zone of inhibition at 20 µg/disc", "setting": "MRSA USF652; [5]", "result": 8, "unit": "mm"}, {"measurement": "zone of growth inhibition, average diameter", "setting": "MRSA USF652; [6]", "result": 8, "unit": "mm"}, {"measurement": "Kirby-Bauer Disc Diffusion Test Results", "setting": "MRSA USF652; [7]", "result": 8}, {"measurement": "zone of inhibition at 20 µg/disc", "setting": "MRSA USF654; [3]", "result": 10, "unit": "mm"}, {"measurement": "zone of inhibition at 20 µg/disc", "setting": "MRSA USF654; [4]", "result": 9, "unit": "mm"}, {"measurement": "zone of inhibition at 20 µg/disc", "setting": "MRSA USF654; [5]", "result": 9, "unit": "mm"}, {"measurement": "zone of growth inhibition, average diameter", "setting": "MRSA USF654; [6]", "result": 10, "unit": "mm"}, {"measurement": "Kirby-Bauer Disc Diffusion Test Results", "setting": "MRSA USF654; [7]", "result": 10}, {"measurement": "zone of inhibition at 20 µg/disc", "setting": "MRSA USF656; [3]", "result": 12, "unit": "mm"}, {"measurement": "zone of inhibition at 20 µg/disc", "setting": "MRSA USF656; [4]", "result": 12, "unit": "mm"}, {"measurement": "zone of inhibition at 20 µg/disc", "setting": "MRSA USF656; [5]", "result": 10, "unit": "mm"}, {"measurement": "zone of growth inhibition, average diameter", "setting": "MRSA USF656; [6]", "result": 12, "unit": "mm"}, {"measurement": "Kirby-Bauer Disc Diffusion Test Results", "setting": "MRSA USF656; [7]", "result": 10}, {"measurement": "zone of inhibition at 20 µg/disc", "setting": "MRSA USF657; [3]", "result": 12, "unit": "mm"}, {"measurement": "zone of inhibition at 20 µg/disc", "setting": "MRSA USF657; [4]", "result": 12, "unit": "mm"}, {"measurement": "zone of inhibition at 20 µg/disc", "setting": "MRSA USF657; [5]", "result": 12, "unit": "mm"}, {"measurement": "zone of growth inhibition, average diameter", "setting": "MRSA USF657; [6]", "result": 12, "unit": "mm"}, {"measurement": "Kirby-Bauer Disc Diffusion Test Results", "setting": "MRSA USF657; [7]", "result": 12}, {"measurement": "zone of inhibition at 20 µg/disc", "setting": "MRSA USF658; [3]", "result": 19, "unit": "mm"}, {"measurement": "zone of inhibition at 20 µg/disc", "setting": "MRSA USF658; [4]", "result": 19, "unit": "mm"}, {"measurement": "zone of inhibition at 20 µg/disc", "setting": "MRSA USF658; [5]", "result": 18, "unit": "mm"}, {"measurement": "zone of growth inhibition, average diameter", "setting": "MRSA USF658; [6]", "result": 19, "unit": "mm"}, {"measurement": "Kirby-Bauer Disc Diffusion Test Results", "setting": "MRSA USF658; [7]", "result": 18}, {"measurement": "zone of inhibition at 20 µg/disc", "setting": "MRSA USF659; [3]", "result": 15, "unit": "mm"}, {"measurement": "zone of inhibition at 20 µg/disc", "setting": "MRSA USF659; [4]", "result": 15, "unit": "mm"}, {"measurement": "zone of inhibition at 20 µg/disc", "setting": "MRSA USF659; [5]", "result": 16, "unit": "mm"}, {"measurement": "zone of growth inhibition, average diameter", "setting": "MRSA USF659; [6]", "result": 15, "unit": "mm"}, {"measurement": "Kirby-Bauer Disc Diffusion Test Results", "setting": "MRSA USF659; [7]", "result": 16}, {"measurement": "zone of inhibition at 20 µg/disc", "setting": "Micrococcus luteus; Micrococcus luteus, Table 1, 24 h, triplicate, read-out: zone of growth inhibition, average diameter", "result": 40, "unit": "mm"}, {"measurement": "zone of growth inhibition, average diameter", "setting": "Micrococcus luteus; Table 3, 24 hours", "result": 40, "unit": "mm"}, {"measurement": "zone of inhibition at 20 µg/disc", "setting": "[1]; Staphylococcus aureus, ATCC25923, Table 1, 24 h, triplicate, read-out: zone of growth inhibition, average diameter", "result": 34, "unit": "mm"}, {"measurement": "zone of growth inhibition, average diameter", "setting": "[1]; Table 3, 24 hours", "result": 34, "unit": "mm"}, {"measurement": "zone of inhibition at 20 µg/disc", "setting": "[2]; Staphylococcus epidermidis, Table 1, 24 h, triplicate, read-out: zone of growth inhibition, average diameter", "result": 50, "unit": "mm"}, {"measurement": "zone of growth inhibition, average diameter", "setting": "[2]; Table 3, 24 hours", "result": 50, "unit": "mm"}]}
